Laboratory results reported in paper PMC8428256 (Journal of medicinal chemistry, 2021).
Blank lines part the entries; values can stand above or below the compound they belong to.

What was measured:
[1] = biological target: WIL-FL* (fluorescein-labeled WIL-FL LC dimer) (Homo sapiens, UniProt P01721, form not given/K101C); assay: Proteolysis-coupled fluorescence polarization; format: biochemical; settings: for potency (EC50) increase compared to 1: WIL-FL* EC50 ratio to compound 1
[2] = system: plasma proteins; format: in vitro ADME, human or mouse; settings: 2 μM in plasma, dialysis 4 h, 37 °C
[3] = biological target: WIL-FL* T46L/F49Y (Homo sapiens, UniProt P01721, form not given/K101C/T66L); settings: WIL-FL T46L/F49Y EC50
[4] = system: WIL-FL* (fluorescein-labeled WIL-FL LC dimer); assay: Proteolysis-coupled fluorescence polarization; format: biochemical, human; settings: assay not given; data in Tables S2-S6 of the supplement
[5] = system: WIL-FL F98D; settings: Figure S5
[6] = system: WIL-FL F98D; settings: cited from earlier work

Chain of WIL-FL* (fluorescein-labeled WIL-FL LC dimer) (Homo sapiens, UniProt P01721, form not given/K101C) (P01721 20-117 K101C, form open): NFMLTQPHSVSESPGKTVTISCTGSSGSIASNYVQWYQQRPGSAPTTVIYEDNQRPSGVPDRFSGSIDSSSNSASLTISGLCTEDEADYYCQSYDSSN
Chain of WIL-FL* (fluorescein-labeled WIL-FL LC dimer) (P01721 20-117 K101C, form open): as above
Chain of WIL-FL* T46L/F49Y (P01721 20-117 T66L/K101C, form open): as the sequence (P01721 20-117 K101C, form open) above, with T47L counted along it

SMILES: CCN(CC)c1ccc2c(C)c(CCOC(=O)NCC3CCCNC3)c(=O)oc2c1 (centres unmarked) [Compound 18, 2-(7-(diethylamino)-4-methyl-2-oxo-2H-chromen-3-yl)ethyl (piperidin-3-ylmethyl)carbamate]
potency (EC50) increase compared to 1 [1]: ≤ 8 fold

SMILES: Cc1cc(=O)oc2cc(OCC(C)c3ccccc3)ccc12 (centres unmarked) [Compound 57, 4-methyl-7-(2-phenylpropoxy)-2H-chromen-2-one]
plasma protein binding (in words) [2]: very high plasma protein binding
potency increase relative to 2 [3]: 9 fold

SMILES: CCN(CC)c1ccc2c(C)cc(=O)oc2c1 [Compound 1]
binding to LC with F98D mutation [6]: obviates binding

SMILES: CCN(CC)c1ccc2c(C)c(CCOC(=O)NCc3cccc(-c4c[nH]cn4)c3)c(=O)oc2c1 [Compound 26, 2-(7-(diethylamino)-4-methyl-2-oxo-2H-chromen-3-yl)ethyl (3-(1H-imidazol-4-yl)benzyl)carbamate]
potency (EC50) increase compared to 1 [1]: 42 fold

SMILES: Cc1c(CCN2CC3(CCN(c4nccn5ccnc45)CC3)NC2=O)c(=O)oc2cc(O[C@H](C)c3ccccc3)ccc12 [(R)-83, (R)-8-(imidazo[1,2-a]pyrazin-8-yl)-3-(2-(4-methyl-2-oxo-7-(1-phenylethoxy)-2H-chromen-3-yl)ethyl)-1,3,8-triazaspiro[4.5]decan-2-one]
proteinase K resistance provided to WIL-FL F98D [5]: no appreciable proteinase K resistance

SMILES: CCN(CC)c1ccc2c(C)c(CCOC(=O)NCc3cccnc3)c(=O)oc2c1 [Compound 20, 2-(7-(diethylamino)-4-methyl-2-oxo-2H-chromen-3-yl)ethyl (pyridin-3-ylmethyl)carbamate]
potency (EC50) increase compared to 1 [1]: ≤ 8 fold

SMILES: CCN(CC)c1ccc2c(C)c(CCOC(=O)N(C)CCc3cccnc3)c(=O)oc2c1 [Compound 22, 2-(7-(diethylamino)-4-methyl-2-oxo-2H-chromen-3-yl)ethyl methyl(2-(pyridin-3-yl)ethyl)carbamate]
reduced potency compared to the secondary carbamate 21 ([1]; WIL-FL* EC50): 70 fold

Further lines, results first:

stabilizer potency (qualitative statement in text) [4]: slightly increased their potency
SMILES: Cc1c(CN2CCOCC2)c(=O)oc2cc(OC(C)c3ccccc3)ccc12 (centres unmarked) [Compound 62, 4-methyl-3-(morpholinomethyl)-7-(1-phenylethoxy)-2H-chromen-2-one]

proteinase K resistance provided to WIL-FL F98D [5]: no appreciable proteinase K resistance
SMILES: CCN(CC)c1ccc2c(C)c(CCOC(=O)NCc3cccc(-c4ccc[nH]c4=O)c3)c(=O)oc2c1 [Compound 27, 2-(7-(diethylamino)-4-methyl-2-oxo-2H-chromen-3-yl)ethyl (3-(2-oxo-1,2-dihydropyridin-3-yl)benzyl)carbamate]

potency (EC50) increase compared to 1 [1]: up to 22 fold
SMILES: CCN(CC)c1ccc2c(C)c(CCOC(=O)NCc3cccc(NC(C)=O)c3)c(=O)oc2c1 [Compound 23, 2-(7-(diethylamino)-4-methyl-2-oxo-2H-chromen-3-yl)ethyl (3-acetamidobenzyl)carbamate]

potency (EC50) increase compared to 1 [1]: up to 22 fold
SMILES: CCN(CC)c1ccc2c(C)c(CCOC(=O)NCc3cccc(C(N)=O)c3)c(=O)oc2c1 [Compound 25, 2-(7-(diethylamino)-4-methyl-2-oxo-2H-chromen-3-yl)ethyl (3-carbamoylbenzyl)carbamate]

stabilizer potency (qualitative statement in text) [4]: slightly increased their potency
SMILES: Cc1c(CN2CCOCC2)c(=O)oc2cc(OCC(C)c3ccccc3)ccc12 (centres unmarked) [Compound 63, 4-methyl-3-(morpholinomethyl)-7-(2-phenylpropoxy)-2H-chromen-2-one]

potency (EC50) increase compared to 1 [1]: ≤ 8 fold
SMILES: CCN(CC)c1ccc2c(C)c(CCOC(=O)NCCc3cccnc3)c(=O)oc2c1 [Compound 21, 2-(7-(diethylamino)-4-methyl-2-oxo-2H-chromen-3-yl)ethyl (2-(pyridin-3-yl)ethyl)carbamate]
